The results in this text go back to PMC4931907 (eLife, 2016).

For the experiment, the target named is T1, GCN5 (Homo sapiens, UniProt Q92830).
T1 construct: purchased Enzo Life Sciences
Kind of experiment: In vitro HAT assay with recombinant GCN5, histones and 14C acetyl-CoA. Format: biochemical. How it is done: To determine whether salicylate inhibits p300 and other acetyltransferases, we used in vitro acetylation assays with purified histones and a recombinant p300 catalytic domain.
Figure 1. Salicylate inhibits CBP/p300 in vitro. (A) Recombinant p300, CBP, GCN5, or PCAF and histones were incubated with ^14C-labeled acetyl-CoA with or without sodium salicylate, separated by SDS-PAGE, analyzed by autoradiography, and quantified with Image J software. Acetylation levels are relative to those in untreated controls. (B) Thermal stability assay for sodium salicylate binding to the p300 HAT domain. Tm, melting temperature. […] Histone acetylation was measured with several concentrations of acetyl-CoA (C) or histone (D) in the presence or absence of sodium salicylate. […] Acetylation of an H4(3–14) peptide was monitored using direct microfluidic mobility shift analysis as previously described ([Montgomery et al., 2014]; [Fanslau et al., 2010]). […]
Recombinant HAT ([…]), either p300, CBP, PCAF, or GCN5 (Enzo Life Sciences), and 10 µg of histones (Sigma) were incubated with sodium salicylate (Sigma) in reaction buffer (50 mM HEPES, pH 8.0, 10% glycerol, 1 mM) at 30°C for 30 min and then with 0.1 mCi of ^14C acetyl-CoA at 30°C for 60 min. Reactions were stopped by adding 6x sample buffer and analyzed by SDS-PAGE. […]

T1 sequence (Q92830 whole entry, species assumed): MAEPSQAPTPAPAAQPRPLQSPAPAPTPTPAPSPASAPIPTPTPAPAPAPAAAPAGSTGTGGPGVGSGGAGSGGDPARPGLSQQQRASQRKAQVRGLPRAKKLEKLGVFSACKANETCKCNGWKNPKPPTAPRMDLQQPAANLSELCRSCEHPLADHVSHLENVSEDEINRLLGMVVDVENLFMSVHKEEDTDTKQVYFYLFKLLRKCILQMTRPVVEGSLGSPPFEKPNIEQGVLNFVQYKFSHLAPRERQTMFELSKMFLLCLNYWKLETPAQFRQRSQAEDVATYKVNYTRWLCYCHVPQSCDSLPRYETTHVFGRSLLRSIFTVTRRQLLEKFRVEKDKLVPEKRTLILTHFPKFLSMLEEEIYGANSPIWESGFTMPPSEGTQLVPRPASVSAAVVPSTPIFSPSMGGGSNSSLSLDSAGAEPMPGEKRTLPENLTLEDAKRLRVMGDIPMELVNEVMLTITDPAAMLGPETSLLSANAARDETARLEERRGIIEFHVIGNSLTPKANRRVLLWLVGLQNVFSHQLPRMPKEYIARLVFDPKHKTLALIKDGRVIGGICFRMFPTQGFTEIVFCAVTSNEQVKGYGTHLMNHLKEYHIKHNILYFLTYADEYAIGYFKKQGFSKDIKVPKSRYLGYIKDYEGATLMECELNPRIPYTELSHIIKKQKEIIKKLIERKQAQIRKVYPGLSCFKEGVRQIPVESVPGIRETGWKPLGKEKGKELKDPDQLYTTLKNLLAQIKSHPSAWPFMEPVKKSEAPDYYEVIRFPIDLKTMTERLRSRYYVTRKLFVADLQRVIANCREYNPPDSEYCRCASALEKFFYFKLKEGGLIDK

In the case of `O=C(O)c1ccccc1O` [salicylate, salicylic acid], the “Inhibition of GCN5 acetyltransferase” value is reported as “did not detectably inhibit”.
